US20080033041A1, “USE OF PHENYLETHANOLAMINOTETRALINES FOR PREPARING ANXIOLYTIC DRUGS” (SANOFI-AVENTIS, priority 2004, published 2008)

Assays:
[1] = tested on: rats of the Wistar strain; assay: Elevated Plus Maze test; format: in vivo, rat; details: 10 mg/kg i.p., 5 minutes observation
Source text: 2) The Elevated Plus Maze Test (Pellow S. et al., Journal of Neuroscience Methods, (1985), 14(3), p.149-67) The animals, their preparation and the i.p. dosage of compound to be tested are the same as those described in the Novelty Induced Grooming test. The apparatus consisted of a plus-shaped maze, elevated of 50 centimetres from the floor, with two opposite open arms (50×10 cm) crossed at right angles by two arms of the same dimensions, but enclosed by 40-centimetre high walls with an open roof. In addition, a 1-centimetre high edge made of plexiglas surrounded the open arms to avoid falls. Illumination measured at the centre of the maze was 40 lux. After treatment, the animal was placed at the centre of the plus maze with its nose in the direction of one of the closed arms, and observed for 5 minutes, according to the following parameters: number of entries in the open and closed arms (this parameter can also be expressed by means of percentage of entries in the open arms), and time of presence in each of them (this parameter can also be expressed by means of percentage of time stayed in the open arms. The time of presence measures the time spent by the animal in the open and closed arms. The animals were divided into four groups with 7 animals per group.

[2] = tested on: rats of the Wistar strain; assay: Ultrasonic Vocalizations (USVs) test; format: in vivo, rat; details: 10 mg/kg i.p.
Source text: 3) The Ultrasonic Vocalizations (USVs) Test
(Molewijk et al., Psychopharmacology, (1996),128, p. 31-38)
The animals, their preparation and the i.p. dosage of compound to be tested are the same as those described in the Novelty Induced Grooming test.
This test consists of two different sessions: training and testing sessions. In the training procedure, all animals were trained for 2 days prior to testing. Training consisted of placing the animal in a standard operant chamber (ENV-018M, Med Associates, Georgia, Vt.) where shock could be delivered from a programmable shocker (Model ENV-413, Med Associates) and where it is equipped with an ultrasonic detector (Mini-3 Bat Detector, Ultra Sound Advice, UK). On each of two consecutive days, all the animals received 20 shocks (1 mA, 4 seconds) separated by a random interval that averaged 60 seconds and ranging from 30 to 90 seconds. Each shock was administered concurrently with a 4-Watt light and an acoustic tone (85 dB, 4 s). The chamber was dark between each shock presentation.
On the day following training, animals were administered 10 mg/kg of compound A and placed in the operant apparatus for testing. […] USVs (18-22 KHz) were recorded over the intertrial interval and were expressed as a sum of total time spent vocalizing for each animal. […]

OF1 mice = assay: Mouse Defense test Battery; format: in vivo; details: 1 hour after administration
Experimental: 6) The Mouse Defense test Battery (Griebel et al., (2002), ibid.) Male OF1 mice weighing 17 to 32 g were supplied by Charles River, Iffa Credo or Janvier (Le Genest, France). Experiments were performed 1 hour after p.o. administration of 0.3 mg/kg or 3 mg/kg of the drug or vehicle. The test was conducted in an oval runway as described (Griebel et al., 1997), 23, p. 19-31). Tested mice were submitted to a 3-minute familiarization period sixty minutes after p.o. administration of compound A. (a) The rat avoidance test/flight: Immediately after the 3-minute familiarization period, the experimenter introduced a hand-held dead rat (killed by CO2 inhalation just before the beginning of the experiment) five times at one end of the runway. The following parameter was recorded: avoidance distance (cm). (b) Risk Assessment/Chase Test: The rat was then brought up to the subject at a speed of approximately 2 m/s. A constant distance of 2 meters separated the rat and the subject when the former was introduced in the runway. The following parameter was recorded: number of stops (pauses in movement). The rat was removed after the chase was completed. (c) Defensive Aggression/Straight Alley: By the closing of two doors (60 cm distant from each other), the runway was then converted to a straight alley in which the subject was constrained. The experimenter brought the rat up to contact the subject in the straight alley. Approaches were directed quickly (within 1 second) to the subject's head. For each such contact, bites by the subjects were recorded.

[3] = tested on: rats of the Wistar strain; assay: Novelty Induced Grooming Test; format: in vivo, rat; details: 10 mg/kg i.p., 30 min before test, 30-minute session, control 37 (±3.61)
Experimental: 1) The Novelty Induced Grooming Test
(Gipsen et al., (1975), ibid.)
Male rats of the Wistar strain (purchased from Morini, Italy) weighing from 200 to 220 g were used throughout this test. All animals were gently manipulated by experienced facilities' handlers, avoiding any environmental or physical stress. Compounds according to the invention to be tested were injected intraperitoneally (i.p.) to a group of rats at a dosage 10 mg/kg. Control animals received i.p. the same volume of the vehicle (i.e, physiological saline). […]
Rats were placed individually into plexiglas boxes (24×12×24 cm) in a low noise room. After a minute of adaptation, the behaviour of the rats was sampled every 15 seconds, and the occurrence of grooming was recorded in a session of 30 minutes. The occurrence of the following single elements of grooming was scored as grooming: washing (i.e., vibrating movements of the fore paws in front of the snout and licking of the same paws leading to a series of strokes along the snout and semicircular movements over the top of the head), scratching (that is scratching of the body by one of the limbs), licking (that is licking of the body fur, limbs and tail), and genital grooming (that is licking of genital area). Grooming behaviour of all animals was recorded on a tape using a video-camera (Hitachi Videocam) and then replayed and scored by two independent observers. […]

Mongolian gerbils = assay: Social Interaction test; format: in vivo, gerbil; details: 10 mg/kg p.o., 1 hour after administration, control 30 seconds
Experimental: 5) The Social Interaction Test (Salomé et al., Sanofi-Synthelabo Research, CNS Department, Bagneux, France, ibid.) Male Mongolian gerbils (7-week old, 50-60 g, CERJ, France) were used. Experiments were performed 1 hour after per os (p.o.) administration of 10 mg/kg of the drug or vehicle. The procedure was based on that described initially by File et al., Brain Res., (2001), 888, p. 311-313. Testing lasting two days. On day 1, gerbils were placed individually in a plastic box (30×30×20 cm) under high light conditions (300 lux) for a 10-minute free-exploration period to familiarize with the apparatus. Twenty-four hours later, two gerbils of the same weight but unfamiliar to each other were placed together in the box they had previously explored for a 4 minute 30 seconds observation period. Interaction time (sniffing, chasing, grooming the partner) was recorded manually for each pair of gerbils. Locomotor activity (distance travelled in centimetres) was measured with an automated tracking system (Ethovision, Noldus).

[4] = tested on: Sprague-Dawley and Wistar rats; assay: Punished Drinking test; format: in vivo, rat; details: 10 mg/kg i.p., 30 minutes after injection, 5-minute period, control 10
Experimental: 4) The Punished Drinking Test (Griebel et al., (2002), ibid.) Male Sprague-Dawley and Wistar rats (Iffa Credo, L'Arbresle, and Charles River, Saint-Aubin-lès-Elbeuf, France), weighing 180 to 250 g were used. Experiments were performed 30 minutes after i.p. injection of 10 mg/kg of the drug or vehicle. The procedure was a modification of the technique described by Vogel et al., Psychopharmacologia, (1971), 21, p. 1-7. At the beginning of the experiment, rats, deprived of water but not of food for 48 hours prior to testing, were placed in cages (32×25×30 cm) with a stainless steel grid floor. Each cage was placed in sound-attenuated boxes that were well ventilated and contained a drinking tube connected to an external 50 mL burette filled with tap water. Trials were started only after the animal's tongue entered in contact with the drinking tube for the first time. An electric shock (0.6 mA/500 ms) was delivered to the tongue after every twenty licks. The number of shocks was recorded automatically during a 5-minute period. Subsequent comparisons between treatment groups and control were carried out using Dunnett's t-test.

SMILES: CCOC(=O)COc1ccc2c(c1)C[C@@H](NC[C@H](O)c1cccc(Cl)c1)CC2.Cl [compound A, ethyl [(7S) 7-[(2R) 2-(3-chlorophenyl)-2-hydroxyethylamino]-5,6,7,8-tetrahydronaphthalen-2yloxy]-acetate hydrochloride]
- mean number of entries into the open arms ([1]; control 4): 7
- percentage of time in the open arms ([1]; control 32%): 42%
- percentage of entries into the open arms ([1]; control 40%): 50%
- mean time spent in the open arms ([1]; control 78 seconds): 98 s
- decrease of conditioned USVs versus control [2]: ~50%
- Conditioned USVs duration (total time spent vocalizing) ([2]; control more than 210 seconds): < 120 s
- Number of bites (defensive aggression/straight alley) (OF1 mice; 0.3 mg/kg p.o., control about 2.75 times): about 1.3 times
- Number of stops (risk assessment/chase test) (OF1 mice; 3 mg/kg p.o., control 9 stops): 6 stops
- Avoidance distance (rat avoidance test/flight) (OF1 mice; 3 mg/kg p.o., control 120 cm): 75 cm
- Number of grooming episodes [3]: 17.71 (±5.91)
- Social interaction time (Mongolian gerbils): 70 s
- Number of shocks (punished responding) [4]: 30 shocks
